# Source: patent US5463074A, “Imidazolyl or imidazoylalkyl substituted with a four or five membered nitrogen containing heterocyclic ring” (Schering Corporation, priority 1994, dated 1995)
# Biological target: T1, H3 receptor (Cavia porcellus, UniProt Q9JI35)
# T1 construct: The source of the H3 receptors in this experiment was guinea pig brain; from tissue; host or cells: guinea pig brain membranes
# Test: H3 Receptor Binding Assay
# Parameters: species or system guinea pig
# Details: not given
# Description: The source of the H3 receptors in this experiment was guinea pig brain. The animals used weighted 400-600 g. The tissue was homogenized using a Polytron in a solution of 50 mM Tris, pH 7.5. The final concentration of tissue in the homogenization buffer was 10% w/v. The homogeneates were centrifuged at 1000×g for 10 min. in order to remove clumps of tissue and debris. The resulting supernatants were then centrifuged at 50,000×g for 20 min. in order to sediment the membranes, which were next washed 3 times in homogenization buffer (50,000×g for 20 min. each). The membranes were frozen and stored at -70° C. until needed.
# All compounds to be tested were dissolved in DMSO and then diluted into the binding buffer (50 mM Tris, pH 7.5) such that the final concentration was 2 μg/mL with 0.1% DMSO. Membranes were then added (400 μg of protein) to the reaction tubes. The reaction was started by the addition of 3 nM [^3 H]R-α-methylhistamine (8.8 CVmmol) or [^3 H]-N-methylhistamine (80 Cvmmol) and incubated at 30° for 30 min.
# T1 sequence (Q9JI35 whole entry): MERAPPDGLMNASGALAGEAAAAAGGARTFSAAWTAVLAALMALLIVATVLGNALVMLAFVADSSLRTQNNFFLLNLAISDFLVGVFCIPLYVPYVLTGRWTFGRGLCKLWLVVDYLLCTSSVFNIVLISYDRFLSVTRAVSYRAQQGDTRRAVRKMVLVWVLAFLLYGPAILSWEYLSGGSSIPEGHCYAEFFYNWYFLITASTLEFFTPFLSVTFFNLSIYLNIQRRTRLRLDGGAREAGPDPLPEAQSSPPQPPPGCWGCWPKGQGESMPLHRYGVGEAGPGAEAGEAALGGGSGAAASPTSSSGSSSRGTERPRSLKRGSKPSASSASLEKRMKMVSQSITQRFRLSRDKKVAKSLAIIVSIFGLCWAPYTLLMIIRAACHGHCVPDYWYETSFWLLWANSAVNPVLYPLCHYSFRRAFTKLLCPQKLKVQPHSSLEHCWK
row,SMILES,Ki
1,CCCCC[C@@H]1CNC[C@@H]1c1c[nH]cn1 (relative stereo),77 nM

# Same assay, conditions: at a concentration of 2 μg/mL; guinea pig brain membranes; read-out: % inhibition (of specific binding of radioactive ligand)
row,inhibition at 2 µg/mL,SMILES
1,68%,CC1(C)CNCC1c1c[nH]cn1 (stereo not shown)

# Same assay, conditions: guinea pig brain membranes; [3H]R-α-methylhistamine or [3H]-N-methylhistamine, 30°, 30 min; read-out: H3 Binding Ki
row,SMILES,Ki
1,CN1CCC(Cc2c[nH]cn2)C1 (stereo not shown),3 nM
2,CC1(c2c[nH]cn2)CCNC1 (stereo not shown),170 nM
3,c1ccc(CC[C@@H]2NCC[C@@H]2c2c[nH]cn2)cc1 (relative stereo),600 nM
4,C[C@@H]1C[C@@H](c2c[nH]cn2)CN1 (relative stereo),76 nM
5,CCCCC[C@@H]1CNC[C@H]1c1c[nH]cn1 (relative stereo),450 nM
6,c1nc(CC2CCCN2)c[nH]1 (stereo not shown),110 nM
7,CC1(C)NCCC1c1c[nH]cn1 (stereo not shown),66 nM

# Results, then the molecule that gave them:
row,Ki,SMILES
1,150 nM,CC[C@@H]1CNC[C@H]1c1c[nH]cn1 (relative stereo)
2,8 nM,C[C@@H]1CNC[C@H]1c1cnc[nH]1 (relative stereo)
3,3 nM,c1nc(C2CCNC2)c[nH]1 (stereo not shown)
4,7 nM,C[C@@H]1NC[C@H]1c1c[nH]cn1 (relative stereo)
5,6 nM,C[C@@H]1NCC[C@H]1c1c[nH]cn1 (relative stereo)

# Same assay, conditions: read-out: % inhibition (of specific binding of radioactive ligand)
row,SMILES,inhibition at 2 µg/mL
1,c1ccc(C[C@@H]2NCC[C@H]2c2c[nH]cn2)cc1 (relative stereo),7%

# Test system: H3 receptors
# Test: not given
# Details: H3 receptors in rat brain; cited from earlier work
row,SMILES,maximum inhibition of release
1,NCCc1c[nH]cn1 [histamine],approximately 60%
